Calls of active or inactive are those of the source.
Key:
Vero [1] = assay: cells; assay type: functional; details: Chlorocebus sabaeus
Vero [2] = assay: cells; assay type: functional, cell-based; details: Chlorocebus sabaeus
Paired box protein Pax-8 = Paired box protein Pax-8 (Homo sapiens, UniProt Q06710); assay: inhibitors of PAX8-driven TPO luciferase reporter, dose response, RMG-I cells, cherry-pick (AID 687027); assay type: functional, cell-based;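 further: luciferase reporter driven by Pax8 target thyroperoxidase promoter measured by SteadyGlo luminescence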
BJ = assay: cytotoxicity toward Ras-transformed BJeLR fibroblasts, dose response, cell-based, alamar blue fluorescence, cherrypicked samples (AID 2631); assay type: functional; details: Homo sapiens;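 further: confirmatory dose-response assay in RAS-dependent BJ fibroblasts engineered with TERT, LT and ST, with cytotoxicity read by fluorescence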
[3] = off-target signal loss in HeLa-CEM21 co-culture – HeLa F-luc CTL cells, cherry-picked, counter-screen for HIV-1 Env fusion inhibitor project, dose response (AID 652040); assay type: functional, cell-based;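 further: potency for signal decrease marking cytotoxic or nonspecific inhibition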
[4] = Luminescence Cell-Based Dose Response HTS to Identify Inhibitors of 5'UTR Stem-Loop Driven Prion Protein mRNA Translation in H4 Neuroglioblastoma Cells. [Related pubchem assays: 1827 (Project Summary), 1813 (Primary HTS)]; assay type: functional
Aminopeptidase N = molecular target: T1, Aminopeptidase N (Plasmodium falciparum FcB1/Columbia, UniProt O96935); assay: P. falciparum M1AAP inhibitors, biochemical, fluorogenic H-Leu-NHMec substrate, 1536-well (AID 1445); parameters: species or system Plasmodium falciparum 3D7, 3D7
T1 sequence (O96935 whole entry): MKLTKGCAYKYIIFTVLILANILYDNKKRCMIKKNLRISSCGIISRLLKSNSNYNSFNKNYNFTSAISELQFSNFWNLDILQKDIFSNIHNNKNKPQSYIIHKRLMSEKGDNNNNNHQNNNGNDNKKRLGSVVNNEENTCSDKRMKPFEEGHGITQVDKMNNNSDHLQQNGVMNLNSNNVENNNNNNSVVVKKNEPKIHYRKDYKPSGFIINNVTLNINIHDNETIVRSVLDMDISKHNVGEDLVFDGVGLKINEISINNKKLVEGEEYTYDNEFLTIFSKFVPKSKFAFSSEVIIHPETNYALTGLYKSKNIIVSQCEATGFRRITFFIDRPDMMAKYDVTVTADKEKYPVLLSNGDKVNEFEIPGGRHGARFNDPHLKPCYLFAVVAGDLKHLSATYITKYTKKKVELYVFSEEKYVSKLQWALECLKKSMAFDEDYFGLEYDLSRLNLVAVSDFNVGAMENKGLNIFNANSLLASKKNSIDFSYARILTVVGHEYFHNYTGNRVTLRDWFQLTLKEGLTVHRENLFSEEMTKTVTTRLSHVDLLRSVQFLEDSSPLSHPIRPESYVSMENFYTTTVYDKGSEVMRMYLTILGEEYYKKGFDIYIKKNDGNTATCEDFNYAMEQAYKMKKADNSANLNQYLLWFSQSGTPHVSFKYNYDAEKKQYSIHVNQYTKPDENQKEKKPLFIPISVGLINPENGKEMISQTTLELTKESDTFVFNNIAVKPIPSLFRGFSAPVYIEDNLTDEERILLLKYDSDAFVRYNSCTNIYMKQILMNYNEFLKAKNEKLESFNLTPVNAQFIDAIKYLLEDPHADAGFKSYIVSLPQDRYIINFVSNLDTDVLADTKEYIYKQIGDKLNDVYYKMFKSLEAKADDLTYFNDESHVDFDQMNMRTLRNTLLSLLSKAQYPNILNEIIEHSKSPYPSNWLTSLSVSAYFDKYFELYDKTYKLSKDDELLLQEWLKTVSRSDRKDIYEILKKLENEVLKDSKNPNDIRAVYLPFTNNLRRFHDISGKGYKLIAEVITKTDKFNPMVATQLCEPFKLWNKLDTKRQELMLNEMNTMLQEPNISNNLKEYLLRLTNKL

[5] = inhibitors of HIV Env-driven cell fusion, dose response, cherry-pick (AID 652057); assay type: functional, cell-based
[6] = molecular target: T2, Neuropeptide Y receptor type 2 (Homo sapiens, UniProt P49146); assay: Fluorescence-based cell-based high-throughput dose response assay for agonists of NPY-Y2. [Related pubchem assays: 1703 (Screening assay (CNGC inhibitors).), 1359 (Screening assay (NPY-Y2 potentiators or agonists).), 1304 (Screening assay (NPY-Y1 potentiators or agonists).), 1710 (Screening assay (NPY-Y2 agonists).), 1791 (Summary AID.)]; assay type: functional
T2 sequence (P49146 whole entry): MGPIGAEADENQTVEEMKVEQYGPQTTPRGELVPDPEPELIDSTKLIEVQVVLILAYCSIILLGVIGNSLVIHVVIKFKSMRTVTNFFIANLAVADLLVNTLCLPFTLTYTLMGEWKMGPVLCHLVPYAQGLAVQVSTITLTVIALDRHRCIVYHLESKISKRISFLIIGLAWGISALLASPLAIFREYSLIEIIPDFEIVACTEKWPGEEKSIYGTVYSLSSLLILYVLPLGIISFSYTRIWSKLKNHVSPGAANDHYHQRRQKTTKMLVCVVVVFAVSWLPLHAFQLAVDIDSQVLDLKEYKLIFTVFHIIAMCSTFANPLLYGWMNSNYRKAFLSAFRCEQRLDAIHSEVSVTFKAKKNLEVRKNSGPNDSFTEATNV

INS1 = assay: beta cell apoptosis inhibitors, cytokine rescue, dose response, luminescence, retest (AID 449756); assay type: functional, cell-based; details: Rattus norvegicus;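 further: cell death triggered by IL-1 beta plus TNF-alpha plus IFN-gamma mixture; protective hits raise ATP signal compared with cytokine alone wells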
CAAX prenyl protease 2 = CAAX prenyl protease 2 (Homo sapiens, UniProt Q9Y256); assay: human Rce1 protease inhibitors, dose response, biochemical, yeast membranes, quenched-peptide fluorescence, cherry-pick (AID 588849)
[7] = molecular target: T3, Neuropeptide Y receptor type 1 (Homo sapiens, UniProt P25929); assay: Fluorescence-based counterscreen for agonists of NPY-Y2: cell-based high-throughput dose response assay for agonists of NPY-Y1.; assay type: functional
T3 sequence (P25929 whole entry): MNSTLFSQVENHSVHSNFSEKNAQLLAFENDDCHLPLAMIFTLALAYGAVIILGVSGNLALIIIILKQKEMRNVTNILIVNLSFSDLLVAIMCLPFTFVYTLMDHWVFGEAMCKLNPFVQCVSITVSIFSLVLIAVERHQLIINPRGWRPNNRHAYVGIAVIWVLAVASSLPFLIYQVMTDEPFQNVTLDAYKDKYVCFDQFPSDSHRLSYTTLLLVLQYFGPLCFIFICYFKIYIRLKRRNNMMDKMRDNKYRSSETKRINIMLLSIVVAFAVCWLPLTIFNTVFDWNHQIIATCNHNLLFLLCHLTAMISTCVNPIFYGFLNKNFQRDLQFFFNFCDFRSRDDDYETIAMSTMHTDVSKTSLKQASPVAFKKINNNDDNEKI

[8] = inhibitors of SNCA 5'UTR-driven reporter translation, confirmation, H4 neuroglioma cells, luminescence (AID 1988); assay type: functional, cell-based
[9] = inhibitors of firefly luciferase expression or activity, dose response, H4 neuroglioma cells, luminescence (AID 1990); assay type: functional, cell-based
[10] = ZM109 Env clade C HIV-1 fusion inhibitors, dose response, HeLa effector, CEM target cells, luciferase, cherry-pick (AID 652058); assay type: functional, cell-based
HEK293 [11] = assay: Fluorescence-based counterscreen for potentiators or agonists of NPY-Y2: cell-based high-throughput dose response assay to identify inhibitors of cyclic nucleotide gated ion channel (CNGC) activity. In this assay, the parental HEK293 cell line transfected with a cyclic-nucleotide gated ion channel (CNGC)-based cAMP sensor is used to measure inhibition of isoproterenol-induced CNGC activity by test compound.; assay type: functional; details: Homo sapiens
[12] = inhibitors of clade B AD8 Env fusion, dose response, cell-based, cherry-pick (AID 652062); assay type: functional;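 further: luciferase signal from cell-cell fusion driven by HIV-1 clade B AD8 Env; potency is for inhibitors of fusion seen as a drop in luminescence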
[13] = CEM21 lymphoblast cell cytotoxicity, dose response, cytotoxicity control for viral fusion inhibitor project, CellTiter-Glo luminescence, cherry-picked (AID 652042); assay type: functional, cell-based;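 further: potency for signal decrease meaning cytotoxicity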
[14] = HIV-1 Env-mediated cell fusion inhibitors, dose response, CCR5-tropic Env (AID 2279); assay type: functional
HEK293 [15] = assay: cytotoxicity in HEK293T NF-kB-Luc cells, SAR follow-up, cytotoxicity control for NF-kB activator project, cell-based, resazurin fluorescence (AID 493251); assay type: functional; details: Homo sapiens, HEK293
Jurkat = assay: SAR Analysis of small molecule inhibitors of T-cell specific antigen receptor-induced NF-kB activation in a Jurkat cell line using a luminescence assay - Set 2. [Related pubchem assays (depositor defined):AID435003, AID435012, AID465]; assay type: functional, cell-based; details: Homo sapiens
HEK293 [16] = assay: SAR Analysis of small molecule inhibitors of T-cell specific antigen receptor-induced NF-kB activation in a HEK-293T cell line using a luminescence assay - Set 2. [Related pubchem assays (depositor defined):AID435003, AID435012, AID489026]; assay type: functional, cell-based; details: Homo sapiens

Chain of Paired box protein Pax-8 (Q06710 whole entry): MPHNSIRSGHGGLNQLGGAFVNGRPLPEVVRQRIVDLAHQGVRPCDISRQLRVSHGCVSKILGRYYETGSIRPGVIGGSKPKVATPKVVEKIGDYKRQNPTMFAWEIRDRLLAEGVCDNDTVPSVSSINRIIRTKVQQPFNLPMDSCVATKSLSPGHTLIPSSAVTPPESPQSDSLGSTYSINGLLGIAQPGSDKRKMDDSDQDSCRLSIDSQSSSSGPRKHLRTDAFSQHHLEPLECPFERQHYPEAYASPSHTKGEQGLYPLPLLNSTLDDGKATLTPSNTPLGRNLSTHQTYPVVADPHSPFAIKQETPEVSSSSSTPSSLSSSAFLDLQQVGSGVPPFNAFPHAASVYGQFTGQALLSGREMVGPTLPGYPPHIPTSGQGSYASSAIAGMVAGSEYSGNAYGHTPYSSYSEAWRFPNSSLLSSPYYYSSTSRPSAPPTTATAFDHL
Chain of CAAX prenyl protease 2 (Q9Y256 whole entry): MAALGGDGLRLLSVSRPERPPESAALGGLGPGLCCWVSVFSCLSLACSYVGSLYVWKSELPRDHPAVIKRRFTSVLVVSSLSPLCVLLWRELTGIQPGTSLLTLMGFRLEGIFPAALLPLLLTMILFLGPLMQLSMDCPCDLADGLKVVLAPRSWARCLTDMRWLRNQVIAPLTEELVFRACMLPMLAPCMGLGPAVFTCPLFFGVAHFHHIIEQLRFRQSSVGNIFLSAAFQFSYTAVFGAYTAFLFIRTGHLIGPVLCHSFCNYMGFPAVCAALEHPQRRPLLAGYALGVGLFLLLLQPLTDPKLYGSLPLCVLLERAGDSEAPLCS

O=c1c2ccccc2nc(/C=C/c2cc(Br)ccc2O)n1CCCO
CC50 (Vero [1]): 22.8 µM (active)
IC50 (Vero [2]): > 25 µM (active)

O=C(Nc1cc(S(=O)(=O)N2CCCCC2)ccc1Cl)c1ccccc1NS(=O)(=O)c1ccc(F)cc1
AC50 (Paired box protein Pax-8): 5.08 µM (active)
EC50 (BJ): > 133 µM (inactive)
AC50 [3]: 6.21 µM (active)
EC50 [4]: > 60 µM (not active)
IC50 (Aminopeptidase N): 44.9 µM (active)
AC50 [5]: 28.4 µM (active)
EC50 [6]: 25.6 µM (not active)
AC50 (INS1): 3.42 µM (active)
AC50 (CAAX prenyl protease 2): 20.7 µM (active)
EC50 [7]: 12.7 µM (not active)
EC50 [8]: 13.7 µM (active)
EC50 [9]: 13.8 µM (active)
AC50 [10]: 25.6 µM (active)
EC50 (HEK293 [11]): 4.53 µM (active)
AC50 [12]: 10.8 µM (active)
AC50 [13]: 32.9 µM (active)
IC50 [14]: 2 µM (active)

CCCOc1ccc(C(=O)Nc2ccc(NC(=O)c3cc4ccccc4o3)cc2)cc1
IC50 (HEK293 [15]): > 80 µM (inactive)
IC50 (Jurkat): > 79 µM (inactive)
IC50 (HEK293 [16]): > 80 µM (inactive)
